From the supplement of paper PMC10883282
± gives the standard deviation of the averaged measurements.

Test system: SYO-1
Experiment: relative viability vs DMSO control (72 h) (fraction); higher = more viable cells
Summary of the method: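 Percent growth from ATPLite readings, averaged over up to triplicate wells, was used as relative viability. Sarcoma cell lines were seeded into 384-well plates for 80–90% confluence, dosed after 24 h, and kept 72 h at 37 °C, 5% CO2. Data were rescaled to a range where 1 is full and 0 is none.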

SMILES | relative viability (0.00017 µM) | relative viability (0.00051 µM) | relative viability (0.00152 µM) | relative viability (0.00457 µM) | relative viability (0.01372 µM) | relative viability (0.04115 µM) | relative viability (0.1235 µM) | relative viability (0.3704 µM) | relative viability (1.111 µM) | relative viability (3.333 µM) | relative viability (10 µM)
O=C(Nc1cnn2ccc(N3CCC[C@@H]3c3cc(F)ccc3F)nc12)N1CC[C@H](O)C1 [Larotrectinib] | 1.034 ± 0.0067 | 1.02 ± 0.021 | 0.979 ± 0.016 | 0.973 ± 0.047 | 0.946 ± 0.06 | 0.948 ± 0.063 | 0.926 ± 0.075 | 0.937 ± 0.043 | 0.885 ± 0.058 | 0.903 ± 0.062 | 0.875 ± 0.055
COCc1c(-c2cc3cc(C)cc(OC)c3s2)c2c(N)ncnn2c1CN1CCNC(=O)C1 [Rogaratinib] | 1.01 ± 0.048 | 0.974 ± 0.054 | 0.952 ± 0.059 | 0.924 ± 0.067 | 0.84 ± 0.059 | 0.765 ± 0.082 | 0.634 ± 0.05 | 0.613 ± 0.071 | 0.6 ± 0.057 | 0.568 ± 0.056 | 0.464 ± 0.06
Cn1cnc2c(F)c(Nc3ccc(Br)cc3F)c(C(=O)NOCCO)cc21 [Binimetinib] | 1.04 ± 0.027 | 1.05 ± 0.02 | 1.01 ± 0.064 | 1.01 ± 0.038 | 0.983 ± 0.024 | 0.96 ± 0.042 | 0.936 ± 0.038 | 0.933 ± 0.019 | 0.93 ± 0.069 | 0.889 ± 0.042 | 0.86 ± 0.059
Cn1cc(-c2cc3c(N4CCN(c5ncc([C@@](C)(N)c6ccc(F)cc6)cn5)CC4)ncnn3c2)cn1 [Avapritinib] | 0.92 ± 0.012 | 0.898 ± 0.031 | 0.882 ± 0.057 | 0.844 ± 0.087 | 0.807 ± 0.1 | 0.718 ± 0.054 | 0.629 ± 0.053 | 0.568 ± 0.03 | 0.534 ± 0.059 | 0.439 ± 0.039 | 0.319 ± 0.023
C[C@]1(O)C[C@@H](c2nc(-c3ccc4ccc(-c5ccccc5)nc4c3)c3c(N)nccn32)C1 [Linsitinib] | 1.01 ± 0.043 | 1.01 ± 0.013 | 0.97 ± 0.046 | 0.969 ± 0.018 | 0.922 ± 0.035 | 0.87 ± 0.083 | 0.857 ± 0.035 | 0.823 ± 0.012 | 0.833 ± 0.04 | 0.734 ± 0.025 | 0.57 ± 0.028
Cc1cc(Nc2ncnc3ccc(NC4=NC(C)(C)CO4)cc23)ccc1Oc1ccn2ncnc2c1 [Tucatinib] | 1.03 ± 0.024 | 1.04 ± 0.026 | 1.02 ± 0.015 | 1.01 ± 0.021 | 0.99 ± 0.027 | 0.981 ± 0.038 | 1.01 ± 0.022 | 0.97 ± 0.064 | 0.969 ± 0.019 | 0.959 ± 0.027 | 0.841 ± 0.041
Nc1cc(C(F)(F)F)c(-c2cc(N3CCOCC3)nc(N3CCOCC3)n2)cn1 [Buparlisib] | 0.933 ± 0.025 | 0.939 ± 0.011 | 0.935 ± 0.028 | 0.931 ± 0.022 | 0.894 ± 0.043 | 0.878 ± 0.066 | 0.81 ± 0.075 | 0.739 ± 0.052 | 0.456 ± 0.0064 | 0.159 ± 0.0096 | 0.136 ± 0.005
C[C@@H]1CCN(C(=O)CC#N)C[C@@H]1N(C)c1ncnc2[nH]ccc12 [Tofacitinib] | 1.01 ± 0.051 | 0.969 ± 0.061 | 0.966 ± 0.072 | 0.923 ± 0.024 | 0.887 ± 0.039 | 0.902 ± 0.062 | 0.916 ± 0.043 | 0.888 ± 0.02 | 0.891 ± 0.053 | 0.868 ± 0.032 | 0.766 ± 0.044
COc1cc2/c(=N/c3ccc(Br)cc3F)nc[nH]c2cc1OCC1CCN(C)CC1 [Vandetanib] | 0.926 ± 0.02 | 0.924 ± 0.043 | 0.927 ± 0.028 | 0.899 ± 0.067 | 0.889 ± 0.041 | 0.848 ± 0.034 | 0.793 ± 0.011 | 0.65 ± 0.015 | 0.4003 ± 0.0022 | 0.0998 ± 0.016 | -0.00567 ± 0.0018
CCCS(=O)(=O)Nc1ccc(F)c(C(=O)c2c[nH]c3ncc(-c4ccc(Cl)cc4)cc23)c1F [Vemurafenib] | 0.954 ± 0.056 | 0.955 ± 0.048 | 0.963 ± 0.04 | 0.966 ± 0.061 | 0.975 ± 0.051 | 0.967 ± 0.043 | 0.974 ± 0.024 | 1 ± 0.027 | 0.986 ± 0.042 | 0.95 ± 0.076 | 0.608 ± 0.072
C=CC(=O)N1CCC([C@@H]2CCNc3c(C(N)=O)c(-c4ccc(Oc5ccccc5)cc4)nn32)CC1 [Zanubrutinib] | 0.982 ± 0.032 | 0.978 ± 0.025 | 0.976 ± 0.018 | 0.979 ± 0.018 | 0.984 ± 0.015 | 0.9556 ± 0.0067 | 0.967 ± 0.018 | 0.959 ± 0.06 | 0.97 ± 0.061 | 0.884 ± 0.076 | 0.763 ± 0.053
CC(=O)Nc1cccc(-n2c(=O)n(C3CC3)c(=O)c3c(Nc4ccc(I)cc4F)n(C)c(=O)c(C)c32)c1 [Trametinib] | 0.997 ± 0.025 | 0.983 ± 0.057 | 0.925 ± 0.031 | 0.889 ± 0.034 | 0.865 ± 0.027 | 0.832 ± 0.056 | 0.765 ± 0.05 | 0.735 ± 0.038 | 0.687 ± 0.061 | 0.687 ± 0.037 | 0.671 ± 0.048
C=CC(=O)N1CCC[C@@H](n2nc(-c3ccc(Oc4ccccc4)cc3)c3c(N)ncnc32)C1 [Ibrutinib] | 0.992 ± 0.034 | 0.959 ± 0.047 | 0.923 ± 0.036 | 0.933 ± 0.042 | 0.923 ± 0.046 | 0.892 ± 0.045 | 0.868 ± 0.041 | 0.861 ± 0.026 | 0.759 ± 0.055 | 0.557 ± 0.027 | 0.39 ± 0.02
Cc1ccc(F)c(NC(=O)Nc2ccc(-c3cccc4[nH]nc(N)c34)cc2)c1 [Linifanib] | 0.98 ± 0.036 | 0.968 ± 0.087 | 0.957 ± 0.066 | 0.941 ± 0.035 | 0.906 ± 0.049 | 0.845 ± 0.085 | 0.76 ± 0.13 | 0.751 ± 0.093 | 0.769 ± 0.016 | 0.753 ± 0.055 | 0.711 ± 0.031
